# Target: LRRK2 G2019S (Homo sapiens, UniProt Q5S007, G2019S)
# Assay: LRRK2 G2019S TR-FRET kinase assay (LRRKtide substrate)
# Type: biochemical
# Settings: LRRK2 G2019S enzyme 5 nM, 134 μM ATP, 60 minute reaction, 23° C.
# Procedure: Materials: • LRRK2 G2019S enzyme • Substrate (LRRKtide) • ATP • TR-FRET dilution buffer • pLRRKtide antibody • 384-well assay plate • DMSO
# Enzyme Reaction Conditions
# 23° C. reaction temperature
# 10 μL total reaction volume
# Detection Reaction Conditions
# 1×TR-FRET dilution buffer
# 2 nM antibody • 23° C. reaction temperature • 10 μL total reaction volume
# Compounds are prepared by initially diluting to 1 mM with DMSO. 35 μL of reference compound solution, 35 μL of test compound solution, and 35 μL HPE are successively added to the source plate (384-well assay plate, Labcyte). The plates are centrifuged at 2500 rpm for 1 minute and sealed in foil. POD is used to perform a 3.162 fold serial dilution and 100 nL of reference compound solution, test compound solution, HPE and ZPE are transferred to assay plates. The assay plate is centrifuged at 2500 rpm for 1 minute, and sealed with foil.
# To perform the enzyme reaction, 5 μL of LRRKtide substrate and kinase mixture in assay buffer is added to all wells of the assay plate. The plate is centrifuged to concentrate the mixture at the bottom of the wells. The assay plate is incubated at 23° C. for 20 minutes. Following incubation, 5 μL of 2×ATP in assay buffer is added to each well, and plates are centrifuged to concentrate the mixture at the bottom of the wells. The plate is incubated at 23° C. for 60 minutes.
# To perform the detection of the reaction, EDTA completely mixed in TR-FRET dilution buffer is added to antibody reagent. 10 μL of detection reagent is added to all wells of each well of the assay plate and the plate is centrifuged to concentrate the mixture at the bottom of the wells. The plate is then incubated at 23° C. for 60 minutes. Plates are read on Perkin Elmer Envision 2104 instrument in TR-FRET mode using a 340 nm excitation filter, 520 nm fluorescence emission filter, and 490 or 495 nm terbium emission filter.
# LRRK2 G2019S, sequence (Q5S007 whole entry G2019S): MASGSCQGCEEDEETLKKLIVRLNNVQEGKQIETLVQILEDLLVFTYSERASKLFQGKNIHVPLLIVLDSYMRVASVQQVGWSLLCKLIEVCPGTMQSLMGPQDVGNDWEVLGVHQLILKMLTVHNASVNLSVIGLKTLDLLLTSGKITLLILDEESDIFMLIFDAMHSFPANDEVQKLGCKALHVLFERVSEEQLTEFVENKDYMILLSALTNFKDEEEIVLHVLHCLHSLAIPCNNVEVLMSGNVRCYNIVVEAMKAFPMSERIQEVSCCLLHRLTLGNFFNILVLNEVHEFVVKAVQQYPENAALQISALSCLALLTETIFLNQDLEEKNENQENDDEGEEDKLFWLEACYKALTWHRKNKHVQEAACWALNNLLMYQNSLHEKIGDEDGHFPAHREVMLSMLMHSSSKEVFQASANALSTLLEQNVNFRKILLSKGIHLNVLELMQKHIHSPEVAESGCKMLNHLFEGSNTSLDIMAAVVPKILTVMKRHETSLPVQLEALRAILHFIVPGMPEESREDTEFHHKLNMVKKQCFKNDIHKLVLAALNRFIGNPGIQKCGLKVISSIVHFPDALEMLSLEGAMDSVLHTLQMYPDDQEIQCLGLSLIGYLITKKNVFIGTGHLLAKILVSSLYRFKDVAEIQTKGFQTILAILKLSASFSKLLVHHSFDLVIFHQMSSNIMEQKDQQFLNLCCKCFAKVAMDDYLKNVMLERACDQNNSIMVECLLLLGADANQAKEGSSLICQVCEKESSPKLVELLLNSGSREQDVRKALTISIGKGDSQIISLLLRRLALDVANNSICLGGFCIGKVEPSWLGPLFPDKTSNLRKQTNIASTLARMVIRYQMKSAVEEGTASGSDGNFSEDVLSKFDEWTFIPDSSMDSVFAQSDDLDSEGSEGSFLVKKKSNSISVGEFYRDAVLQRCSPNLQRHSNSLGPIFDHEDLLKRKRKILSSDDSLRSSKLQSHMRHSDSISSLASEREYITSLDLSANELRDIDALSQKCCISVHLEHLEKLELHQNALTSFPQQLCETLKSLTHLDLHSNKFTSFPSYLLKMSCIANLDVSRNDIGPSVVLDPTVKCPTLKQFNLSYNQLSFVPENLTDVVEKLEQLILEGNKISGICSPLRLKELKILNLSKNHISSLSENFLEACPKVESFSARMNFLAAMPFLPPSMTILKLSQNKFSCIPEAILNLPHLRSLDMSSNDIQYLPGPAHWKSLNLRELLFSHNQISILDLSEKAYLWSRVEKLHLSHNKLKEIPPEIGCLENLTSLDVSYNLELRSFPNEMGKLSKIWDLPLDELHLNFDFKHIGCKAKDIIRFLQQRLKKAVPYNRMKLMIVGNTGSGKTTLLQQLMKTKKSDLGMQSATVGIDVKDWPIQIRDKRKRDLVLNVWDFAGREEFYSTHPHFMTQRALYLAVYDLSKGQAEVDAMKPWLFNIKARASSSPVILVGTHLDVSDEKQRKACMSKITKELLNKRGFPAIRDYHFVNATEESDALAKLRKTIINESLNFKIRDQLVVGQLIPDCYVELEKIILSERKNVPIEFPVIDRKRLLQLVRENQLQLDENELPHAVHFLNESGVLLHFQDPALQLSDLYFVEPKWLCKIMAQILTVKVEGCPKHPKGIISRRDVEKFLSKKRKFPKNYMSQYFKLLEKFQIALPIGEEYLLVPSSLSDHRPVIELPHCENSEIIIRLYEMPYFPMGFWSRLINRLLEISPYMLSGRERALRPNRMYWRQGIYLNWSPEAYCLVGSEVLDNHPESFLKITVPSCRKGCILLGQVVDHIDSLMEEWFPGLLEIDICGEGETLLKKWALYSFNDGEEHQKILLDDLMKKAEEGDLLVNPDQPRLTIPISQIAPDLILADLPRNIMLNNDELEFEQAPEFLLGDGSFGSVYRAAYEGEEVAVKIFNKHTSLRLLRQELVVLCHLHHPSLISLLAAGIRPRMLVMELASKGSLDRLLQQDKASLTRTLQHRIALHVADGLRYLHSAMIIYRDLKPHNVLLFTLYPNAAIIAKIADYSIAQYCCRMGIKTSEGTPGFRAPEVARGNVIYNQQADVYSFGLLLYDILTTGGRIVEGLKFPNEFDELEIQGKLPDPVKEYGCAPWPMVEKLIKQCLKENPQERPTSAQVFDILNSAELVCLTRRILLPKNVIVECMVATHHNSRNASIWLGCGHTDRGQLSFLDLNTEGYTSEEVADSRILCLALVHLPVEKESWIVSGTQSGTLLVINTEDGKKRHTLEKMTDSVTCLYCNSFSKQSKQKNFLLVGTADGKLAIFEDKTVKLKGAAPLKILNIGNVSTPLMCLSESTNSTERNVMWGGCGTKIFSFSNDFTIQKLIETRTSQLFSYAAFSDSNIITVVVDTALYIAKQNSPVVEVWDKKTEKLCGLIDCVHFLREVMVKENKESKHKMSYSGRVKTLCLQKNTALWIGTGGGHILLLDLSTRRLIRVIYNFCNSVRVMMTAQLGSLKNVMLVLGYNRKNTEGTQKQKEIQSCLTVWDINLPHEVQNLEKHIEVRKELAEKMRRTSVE
row,IC50,SMILES
1,< 30 nM,"Cc1nn(C2C[C@]2(C)C#N)cc1Nc1ncc(C(F)(F)F)c(NC2(C)CC2)n1 (single isomer, unassigned) [Compound 13]"
2,< 30 nM,"CNc1nc(Nc2cn(C3C[C@@]3(C)C#N)nc2C2CC2)ncc1C(F)(F)F (single isomer, unassigned) [Compound 2]"
3,< 30 nM,"Cc1nn(C2C[C@@]2(C)C#N)cc1Nc1ncc(C(F)(F)F)c(NC2CC2)n1 (single isomer, unassigned) [Compound 9]"
4,< 30 nM,"CCNc1nc(Nc2cn(C3C[C@@]3(C)C#N)nc2C2CC2)ncc1C(F)(F)F (single isomer, unassigned) [Compound 1, 2-(3-cyclopropyl-4-((4-(ethylamino)-5-(trifluoromethyl)pyrimidin-2-yl)amino)-1H-pyrazol-1-yl)-1-methylcyclopropanecarbonitrile]"
5,< 30 nM,"Cc1c(Nc2ncc(C(F)(F)F)c(NC3CC3)n2)cnn1C1C[C@]1(C)C#N (single isomer, unassigned) [Compound 15]"
6,< 30 nM,"CNc1nc(Nc2cn(C3C[C@]3(C)C#N)nc2C)ncc1C(F)(F)F (single isomer, unassigned) [Compound 5]"
7,< 30 nM,"Cc1c(Nc2ncc(C(F)(F)F)c(NC3CC3)n2)cnn1C1C[C@@]1(C)C#N (single isomer, unassigned) [Compound 16]"
8,< 30 nM,"CCNc1nc(Nc2cnn(C3C[C@H]3C#N)c2C)ncc1C(F)(F)F (single isomer, unassigned) [Compound 19]"
9,< 30 nM,"CCNc1nc(Nc2cn(C3C[C@@]3(C)C#N)nc2C)ncc1Br (single isomer, unassigned) [Compound 12]"
10,< 30 nM,"CNc1nc(Nc2cn(C3C[C@]3(C)C#N)nc2C2CC2)ncc1C(F)(F)F (single isomer, unassigned) [Compound 3]"
11,< 30 nM,"CCNc1nc(Nc2cn(C3C[C@]3(C)C#N)nc2C)ncc1Br (single isomer, unassigned) [Compound 11]"
12,< 30 nM,"CCNc1nc(Nc2cn(C3C[C@H]3C#N)nc2C2CC2)ncc1C(F)(F)F (single isomer, unassigned) [Compound 17]"
13,< 30 nM,"Cc1nn(C2C[C@]2(C)C#N)cc1Nc1ncc(C(F)(F)F)c(NC2CC2)n1 (single isomer, unassigned) [Compound 7]"
14,< 30 nM,"Cc1nn(C2C[C@@]2(C)C#N)cc1Nc1ncc(C(F)(F)F)c(NC2(C)CC2)n1 (single isomer, unassigned) [Compound 14]"
15,< 30 nM,"CNc1nc(Nc2cn(C3C[C@@]3(C)C#N)nc2C)ncc1C(F)(F)F (single isomer, unassigned) [Compound 10]"
16,< 30 nM,"CCNc1nc(Nc2cn(C3C[C@]3(C)C#N)nc2C2CC2)ncc1C(F)(F)F (single isomer, unassigned) [Compound 4, 2-(3-cyclopropyl-4-((4-(ethylamino)-5-(trifluoromethyl)pyrimidin-2-yl)amino)-1H-pyrazol-1-yl)-1-methylcyclopropanecarbonitrile]"
17,< 30 nM,"CCNc1nc(Nc2cnn(C3C[C@@H]3C#N)c2C)ncc1C(F)(F)F (single isomer, unassigned) [Compound 18]"
18,< 30 nM,"CCNc1nc(Nc2cn(C3C[C@]3(C)C#N)nc2C)ncc1C(F)(F)F (single isomer, unassigned) [Compound 6]"
19,< 30 nM,"CCNc1nc(Nc2cn(C3C[C@@]3(C)C#N)nc2C)ncc1C(F)(F)F (single isomer, unassigned) [Compound 8]"
